The text below walks through data of US20230085307A1, “PYRIDAZINONE COMPOUND AND HERBICIDE” (NISSAN CHEMICAL CORPORATION, priority 2019, published 2023).

The test system of one test is barnyard grass. Kind of test: Test Example 3: herbicidal effect by foliage application, Wagner pot (Table 18, symbol H). To be noted: amount of applied herbicide 320 g/ha. The format is in vivo, barnyard grass (Echinochloa crus-galli). Summed up:
(§1)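 Plants were sown in alluvial soil held under 0.1–0.5 cm standing water and grown 14 days in a greenhouse at 25–30 °C. An emulsifiable formulation, water-diluted to the set dose, was then sprayed onto the foliage, and effects were scored three weeks later using previously defined criteria.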
Regarding `CSc1ccccc1-c1sc2ccc(C)cc2c1-c1c(O)c(C)nn(C)c1=O` [2-142], the “herbicidal effect on H: barnyard grass” value is 2 (Herbicidal rate of 20% or more and less than 40%).

For `CCCC(=O)Oc1c(C)nn(C)c(=O)c1-c1c(-c2ccc([N+](=O)[O-])cc2)sc2ccc(C)cc12` [2-145], the “herbicidal effect on H: barnyard grass” value is 3 (Herbicidal rate of 40% or more and less than 70%).

Another test deals with Chinese sprangletop. Kind of test: Test Example 3: herbicidal effect by foliage application, Wagner pot (Table 18, symbol D). The format is in vivo, chinese sprangletop (Leptochloa chinensis). To be noted: amount of applied herbicide 320 g/ha. In short, it runs like this: as §1
In the case of `CSc1ccccc1-c1sc2ccc(C)cc2c1-c1c(O)c(C)nn(C)c1=O` [2-142], the “herbicidal effect on D: Chinese sprangletop” value is listed as 0 (Herbicidal rate of 5% or less (almost no effect)).

Regarding `CCCC(=O)Oc1c(C)nn(C)c(=O)c1-c1c(-c2ccc([N+](=O)[O-])cc2)sc2ccc(C)cc12` [2-145], the “herbicidal effect on D: Chinese sprangletop” value was 0 (Herbicidal rate of 5% or less (almost no effect)).

Another test relates to rice flat sedge. In words: Test Example 3: herbicidal effect by foliage application, Wagner pot (Table 18, symbol E). The format is in vivo, rice flat sedge (Cyperus iria). The conditions noted are these: amount of applied herbicide 320 g/ha. Summed up:
as §1
Regarding `CSc1ccccc1-c1sc2ccc(C)cc2c1-c1c(O)c(C)nn(C)c1=O` [2-142], the “herbicidal effect on E: rice flat sedge” value is 2 (Herbicidal rate of 20% or more and less than 40%).

In the case of `CCCC(=O)Oc1c(C)nn(C)c(=O)c1-c1c(-c2ccc([N+](=O)[O-])cc2)sc2ccc(C)cc12` [2-145], the “herbicidal effect on E: rice flat sedge” value is 4 (Herbicidal rate of 70% or more and less than 90%).

Another test deals with southern crabgrass. In words: Test Example 5: herbicidal effect by foliage application, plastic box (Table 20, symbol F). The conditions noted are these: foliage application, 320 g/ha, evaluated three weeks after application. It is filed as in vivo, southern crabgrass (Digitaria ciliaris). Summed up:
(§2)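 Plants sown in sterilized diluvial soil and grown 14 days in a greenhouse at 25° C to 30° C, then sprayed on the foliage with the compound's emulsion diluted in water to a predetermined herbicide amount. Injury to weeds and crops scored three weeks after application on a visual rating scale.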
In the case of `CSc1ccccc1-c1sc2ccc(C)cc2c1-c1c(O)c(C)nn(C)c1=O` [2-142], the “herbicidal effect on F: southern crabgrass (criteria 0-5)” value is 0 (Herbicidal rate of 5% or less (almost no effect)).

For `CCCC(=O)Oc1c(C)nn(C)c(=O)c1-c1c(-c2ccc([N+](=O)[O-])cc2)sc2ccc(C)cc12` [2-145], the “herbicidal effect on F: southern crabgrass (criteria 0-5)” value is 1 (Herbicidal rate of 5% or more and less than 20%).

For a further test, the system named is green foxtail. Kind of test: Test Example 5: herbicidal effect by foliage application, plastic box (Table 20, symbol G). It is filed as in vivo, green foxtail (Setaria viridis). The conditions noted are these: foliage application, 320 g/ha, evaluated three weeks after application. In short, it runs like this: as §2
`CSc1ccccc1-c1sc2ccc(C)cc2c1-c1c(O)c(C)nn(C)c1=O` [2-142]: the “herbicidal effect on G: green foxtail (criteria 0-5)” value was 0 (Herbicidal rate of 5% or less (almost no effect)).

On to `CCCC(=O)Oc1c(C)nn(C)c(=O)c1-c1c(-c2ccc([N+](=O)[O-])cc2)sc2ccc(C)cc12` [2-145], for which the “herbicidal effect on G: green foxtail (criteria 0-5)” value is 3 (Herbicidal rate of 40% or more and less than 70%).

A further test has as its system barnyard grass. In words: Test Example 5: herbicidal effect by foliage application, plastic box (Table 20, symbol H). It is filed as in vivo, barnyard grass (Echinochloa crus-galli). The conditions noted are these: foliage application, 320 g/ha, evaluated three weeks after application. Summed up: as §2
Take `CSc1ccccc1-c1sc2ccc(C)cc2c1-c1c(O)c(C)nn(C)c1=O` [2-142]: the “herbicidal effect on H: barnyard grass (criteria 0-5)” value is listed as 0 (Herbicidal rate of 5% or less (almost no effect)).

`CCCC(=O)Oc1c(C)nn(C)c(=O)c1-c1c(-c2ccc([N+](=O)[O-])cc2)sc2ccc(C)cc12` [2-145]: the “herbicidal effect on H: barnyard grass (criteria 0-5)” value is 3 (Herbicidal rate of 40% or more and less than 70%).

A further test deals with wild oat. Kind of test: Test Example 5: herbicidal effect by foliage application, plastic box (Table 20, symbol I). It is filed as in vivo, wild oat (Avena fatua). To be noted: foliage application, 320 g/ha, evaluated three weeks after application. In short, it runs like this:
as §2
`CSc1ccccc1-c1sc2ccc(C)cc2c1-c1c(O)c(C)nn(C)c1=O` [2-142]: the “herbicidal effect on I: wild oat (criteria 0-5)” value was 1 (Herbicidal rate of 5% or more and less than 20%).

With `CCCC(=O)Oc1c(C)nn(C)c(=O)c1-c1c(-c2ccc([N+](=O)[O-])cc2)sc2ccc(C)cc12` [2-145], the “herbicidal effect on I: wild oat (criteria 0-5)” value is recorded as 0 (Herbicidal rate of 5% or less (almost no effect)).

The test system of a further test is blackgrass. Kind of test: Test Example 5: herbicidal effect by foliage application, plastic box (Table 20, symbol J). The format is in vivo, blackgrass (Alopecurus myosuroides). To be noted: foliage application, 320 g/ha, evaluated three weeks after application. Summed up:
as §2
On to `CSc1ccccc1-c1sc2ccc(C)cc2c1-c1c(O)c(C)nn(C)c1=O` [2-142], for which the “herbicidal effect on J: blackgrass (criteria 0-5)” value was 1 (Herbicidal rate of 5% or more and less than 20%).

Regarding `CCCC(=O)Oc1c(C)nn(C)c(=O)c1-c1c(-c2ccc([N+](=O)[O-])cc2)sc2ccc(C)cc12` [2-145], the “herbicidal effect on J: blackgrass (criteria 0-5)” value is recorded as 0 (Herbicidal rate of 5% or less (almost no effect)).

The next test deals with Italian ryegrass. Kind of test: Test Example 5: herbicidal effect by foliage application, plastic box (Table 20, symbol K). The conditions noted are these: foliage application, 320 g/ha, evaluated three weeks after application. It is filed as in vivo, Italian ryegrass (Lolium multiflorum). In short, it runs like this: as §2
For the compound `CSc1ccccc1-c1sc2ccc(C)cc2c1-c1c(O)c(C)nn(C)c1=O` [2-142], the “herbicidal effect on K: Italian ryegrass (criteria 0-5)” value is 1 (Herbicidal rate of 5% or more and less than 20%).

On to `CCCC(=O)Oc1c(C)nn(C)c(=O)c1-c1c(-c2ccc([N+](=O)[O-])cc2)sc2ccc(C)cc12` [2-145], for which the “herbicidal effect on K: Italian ryegrass (criteria 0-5)” value is 3 (Herbicidal rate of 40% or more and less than 70%).

In the next test the test system is windgrass. Kind of test: Test Example 5: herbicidal effect by foliage application, plastic box (Table 20, symbol L). The format is in vivo, windgrass (Apera spica-venti). To be noted: foliage application, 320 g/ha, evaluated three weeks after application. Summed up: as §2
On to `CSc1ccccc1-c1sc2ccc(C)cc2c1-c1c(O)c(C)nn(C)c1=O` [2-142], for which the “herbicidal effect on L: windgrass (criteria 0-5)” value is given as 0 (Herbicidal rate of 5% or less (almost no effect)).

With `CCCC(=O)Oc1c(C)nn(C)c(=O)c1-c1c(-c2ccc([N+](=O)[O-])cc2)sc2ccc(C)cc12` [2-145], the “herbicidal effect on L: windgrass (criteria 0-5)” value was 0 (Herbicidal rate of 5% or less (almost no effect)).

The test system of another test is velvetleaf. Kind of test: Test Example 5: herbicidal effect by foliage application, plastic box (Table 20, symbol M). It is filed as in vivo, velvetleaf (Abutilon theophrasti). To be noted: foliage application, 320 g/ha, evaluated three weeks after application. In short, it runs like this: as §2
As for `CSc1ccccc1-c1sc2ccc(C)cc2c1-c1c(O)c(C)nn(C)c1=O` [2-142], the “herbicidal effect on M: velvetleaf (criteria 0-5)” value is 0 (Herbicidal rate of 5% or less (almost no effect)).

In the case of `CCCC(=O)Oc1c(C)nn(C)c(=O)c1-c1c(-c2ccc([N+](=O)[O-])cc2)sc2ccc(C)cc12` [2-145], the “herbicidal effect on M: velvetleaf (criteria 0-5)” value is 4 (Herbicidal rate of 70% or more and less than 90%).

In another test the test system is redroot pigweed. In words: Test Example 5: herbicidal effect by foliage application, plastic box (Table 20, symbol N). The format is in vivo, redroot pigweed (Amaranthus retroflexus). To be noted: foliage application, 320 g/ha, evaluated three weeks after application. In short, it runs like this:
as §2
As for `CSc1ccccc1-c1sc2ccc(C)cc2c1-c1c(O)c(C)nn(C)c1=O` [2-142], the “herbicidal effect on N: redroot pigweed (criteria 0-5)” value is given as 0 (Herbicidal rate of 5% or less (almost no effect)).

Turning to `CCCC(=O)Oc1c(C)nn(C)c(=O)c1-c1c(-c2ccc([N+](=O)[O-])cc2)sc2ccc(C)cc12` [2-145], the “herbicidal effect on N: redroot pigweed (criteria 0-5)” value was 4 (Herbicidal rate of 70% or more and less than 90%).

The subject of a further test is lambsquarters. Kind of test: Test Example 5: herbicidal effect by foliage application, plastic box (Table 20, symbol O). The format is in vivo, lambsquarters (Chenopodium album). To be noted: foliage application, 320 g/ha, evaluated three weeks after application. Summed up:
as §2
In the case of `CSc1ccccc1-c1sc2ccc(C)cc2c1-c1c(O)c(C)nn(C)c1=O` [2-142], the “herbicidal effect on O: lambsquarters (criteria 0-5)” value is 0 (Herbicidal rate of 5% or less (almost no effect)).

`CCCC(=O)Oc1c(C)nn(C)c(=O)c1-c1c(-c2ccc([N+](=O)[O-])cc2)sc2ccc(C)cc12` [2-145]: the “herbicidal effect on O: lambsquarters (criteria 0-5)” value is 4 (Herbicidal rate of 70% or more and less than 90%).

The next test relates to chickweed. Kind of test: Test Example 5: herbicidal effect by foliage application, plastic box (Table 20, symbol P). It is filed as in vivo, common chickweed (Stellaria media). The conditions noted are these: foliage application, 320 g/ha, evaluated three weeks after application. In short, it runs like this:
as §2
`CSc1ccccc1-c1sc2ccc(C)cc2c1-c1c(O)c(C)nn(C)c1=O` [2-142]: the “herbicidal effect on P: chickweed (criteria 0-5)” value was 4 (Herbicidal rate of 70% or more and less than 90%).

For `CCCC(=O)Oc1c(C)nn(C)c(=O)c1-c1c(-c2ccc([N+](=O)[O-])cc2)sc2ccc(C)cc12` [2-145], the “herbicidal effect on P: chickweed (criteria 0-5)” value is 5 (Herbicidal rate of 90% or more (almost completely withered)).

The test system of a further test is persian speedwell. Kind of test: Test Example 5: herbicidal effect by foliage application, plastic box (Table 20, symbol R). The format is in vivo, Persian speedwell (Veronica persica). The conditions noted are these: foliage application, 320 g/ha, evaluated three weeks after application. Summed up:
as §2
For the compound `CSc1ccccc1-c1sc2ccc(C)cc2c1-c1c(O)c(C)nn(C)c1=O` [2-142], the “herbicidal effect on R: persian speedwell (criteria 0-5)” value was 3 (Herbicidal rate of 40% or more and less than 70%).

With `CCCC(=O)Oc1c(C)nn(C)c(=O)c1-c1c(-c2ccc([N+](=O)[O-])cc2)sc2ccc(C)cc12` [2-145], the “herbicidal effect on R: persian speedwell (criteria 0-5)” value was 5 (Herbicidal rate of 90% or more (almost completely withered)).
